According to ChEMBL document CHEMBL5325445, “Discovery and development of small-molecule heparanase inhibitors” (Bioorg Med Chem, 2023):

System: not listed separately
Assay: Antiproliferative activity against mouse Lewis lung carcinoma cells assessed as reduction in cell viability measured after 24 hrs by MTT assay
Assay type: functional, cell-based
Conditions: not given

| Compound | IC50 [nM] |
| --- | --- |
| O=C(Nn1c(-c2ccccc2)n[nH]c1=S)c1cc(I)cc(I)c1O | 11800 |
| Oc1c(I)cc(I)cc1-c1nn2c(-c3ccccc3)nnc2s1 | 8300 |
| Oc1ccc(I)cc1-c1nn2c(-c3ccccc3)nnc2s1 | 16600 |

System: HepG2
Assay: Antiproliferative activity against human HepG2 cells assessed as reduction in cell viability measured after 24 hrs by MTT assay
Assay type: functional, cell-based
Conditions: HepG2, 24 h

| IC50 [nM] | Compound |
| --- | --- |
| 14900 | O=C(Nn1c(-c2ccccc2)n[nH]c1=S)c1cc(I)cc(I)c1O |
| 11900 | Oc1c(I)cc(I)cc1-c1nn2c(-c3ccccc3)nnc2s1 |
| 18400 | Oc1ccc(I)cc1-c1nn2c(-c3ccccc3)nnc2s1 |

System: HT-1080
Assay: Inhibition of cell invasion in human HT-1080 cells
Conditions: not given

| IC50 [nM] | Compound |
| --- | --- |
| 1500 | CCCCCCCCCCCCCCCC(=O)C1=C(OCc2ccccc2)[C@@H](CO)OC1=O |

System: U2OS
Assay: Anti-invasive activity against human U2OS cells assessed as cell invasion at 2.5 uM
Assay type: functional
Conditions: not given

| Compound | inhibition at 2.5 µM [%] |
| --- | --- |
| O=C(O)c1ccc2c(c1)C(=O)N(c1ccc(NC(=O)c3cccc(C(=O)Nc4ccc(N5C(=O)c6ccc(C(=O)O)cc6C5=O)cc4Cl)c3)c(Cl)c1)C2=O | 75 |
| O=C(Nc1ccc(-c2nc3ccccc3[nH]2)cc1)c1ccc(C(=O)Nc2ccc(-c3nc4ccccc4[nH]3)cc2)cc1 | 80 |

System: not listed separately
Assay: Anti-angiogenic activity in human endothelial cells assessed as reduction in cell growth
Conditions: not given

| Compound | IC50 [nM] |
| --- | --- |
| CCCNc1ccc(N2C(=O)c3ccc(C(=O)O)cc3C2=O)cc1-c1nc2cc(-c3ccc(F)c(Cl)c3)ccc2o1 | 200 |
| CCCNc1ccc(N2C(=O)c3ccc(C(=O)O)cc3C2=O)cc1-c1nc2cc(-c3cccc(Cl)c3)ccc2o1 | 200 |
| COc1ccc(N2C(=O)c3ccc(C(=O)O)cc3C2=O)cc1-c1nc2cc(-c3cc(F)cc(F)c3)ccc2o1 | < 10000 |
| CCCNc1ccc(N2C(=O)c3ccc(C(=O)O)cc3C2=O)cc1-c1nc2cc(-c3ccc(C(F)(F)F)cc3)ccc2o1 | 200 |
| CCCNc1ccc(N2C(=O)c3ccc(C(=O)O)cc3C2=O)cc1-c1nc2cc(-c3ccc(OC(F)(F)F)cc3)ccc2o1 | 200 |
| COc1ccc(-c2nc3cc(-c4ccc(F)cc4)ccc3o2)cc1N1C(=O)c2ccc(C(=O)O)cc2C1=O | < 10000 |
| COCCOc1ccc(-c2nc3cc(-c4ccccc4)ccc3o2)cc1N1C(=O)c2ccc(C(=O)O)cc2C1=O | 5000 |
| COc1ccc(-c2nc3cc(-c4cccc(-c5ccccc5)c4)ccc3o2)cc1N1C(=O)c2ccc(C(=O)O)cc2C1=O | 1000 |
| CCCNc1ccc(N2C(=O)c3ccc(C(=O)O)cc3C2=O)cc1-c1nc2cc(-c3ccc(Cl)cc3)ccc2o1 | 200 |
| O=C(O)c1ccc2c(c1)C(=O)N(c1cccc(-c3nc4cc(-c5cccc(-c6ccccc6)c5)ccc4o3)c1)C2=O | 1000 |
| CCCNc1ccc(N2C(=O)c3ccc(C(=O)O)cc3C2=O)cc1-c1nc2cc(-c3ccc(F)cc3)ccc2o1 | 200 |
| COc1ccc(N2C(=O)c3ccc(C(=O)O)cc3C2=O)cc1-c1nc2cc(-c3ccc4c(c3)OCO4)ccc2o1 | 750 |

Target: T1, Heparanase (Homo sapiens, UniProt Q9Y251)
T1 sequence (Q9Y251 whole entry): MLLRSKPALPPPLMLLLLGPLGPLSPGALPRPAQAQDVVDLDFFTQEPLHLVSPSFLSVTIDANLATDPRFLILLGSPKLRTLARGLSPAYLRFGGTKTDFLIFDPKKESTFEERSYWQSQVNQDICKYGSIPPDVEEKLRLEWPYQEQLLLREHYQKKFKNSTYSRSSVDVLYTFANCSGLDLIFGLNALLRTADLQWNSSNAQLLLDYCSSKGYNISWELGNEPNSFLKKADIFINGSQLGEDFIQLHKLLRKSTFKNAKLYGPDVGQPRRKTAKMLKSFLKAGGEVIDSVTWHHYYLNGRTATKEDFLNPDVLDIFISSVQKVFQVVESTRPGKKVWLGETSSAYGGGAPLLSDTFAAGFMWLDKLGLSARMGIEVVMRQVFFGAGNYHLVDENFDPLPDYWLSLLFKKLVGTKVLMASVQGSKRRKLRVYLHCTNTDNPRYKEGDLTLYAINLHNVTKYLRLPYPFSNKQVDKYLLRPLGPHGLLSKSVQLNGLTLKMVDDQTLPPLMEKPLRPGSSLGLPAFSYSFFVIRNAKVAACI
Assay: Inhibition of heparanase (unknown origin)
Conditions: not given

| IC50 [nM] | Compound |
| --- | --- |
| 10000 | COc1cccc(-n2nc(C(=O)O)cc2-c2ccc(C3CCCCC3)c(Cl)c2)c1 |
